# Biological target: T1, human OX2 receptor (Homo sapiens, UniProt O43614)
# T1 construct: expressed in transfected cells
# T1 sequence (O43614 1-444): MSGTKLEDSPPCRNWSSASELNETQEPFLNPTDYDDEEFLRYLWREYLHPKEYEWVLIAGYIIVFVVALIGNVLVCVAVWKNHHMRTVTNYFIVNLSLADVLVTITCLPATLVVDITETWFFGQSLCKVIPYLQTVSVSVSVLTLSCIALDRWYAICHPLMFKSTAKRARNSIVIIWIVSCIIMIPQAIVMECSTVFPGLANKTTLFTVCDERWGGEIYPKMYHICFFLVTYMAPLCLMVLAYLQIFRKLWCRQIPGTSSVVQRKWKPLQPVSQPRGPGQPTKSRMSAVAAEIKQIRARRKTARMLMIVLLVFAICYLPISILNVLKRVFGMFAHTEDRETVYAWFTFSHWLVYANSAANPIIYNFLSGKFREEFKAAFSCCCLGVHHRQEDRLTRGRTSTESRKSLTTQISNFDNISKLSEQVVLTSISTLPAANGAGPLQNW
# Experiment: Measurement of orexin type 2 receptor agonist activity (calcium fluorescence, Fluo-4, FDSS)
# Assay type: cell-based
# Conditions: 3 uM test compound; CHO cells expressing human OX2 receptor; DMSO = 0%, 10 nM orexin A (human) = 100%
# Method: In order to obtain cell clones that stably express human orexin type 2 receptor, human orexin type 2 (residues 1-444, NCBI Reference Sequence: AK314279) was constructed in a pcDNA3.1 (+) vector (Invitrogen) to express in mammalian cells. This plasmid DNA was transfected into CHO-K1 cells by electroporation, and stable clones were obtained by limiting dilution using resistance to G418 as a selection marker.
# CHO cells in which human OX2 receptor was forcibly expressed were seeded at 10,000 cells/well into a 384-well black transparent bottom plate (BD falcon), and were incubated at 37° C., 5% CO2 for 1 day after incubation at room temperature for 30 minutes. After removing the cell plate medium, assay buffer containing calcium indicator A (HBSS (Thermo Fisher Scientific), 20 mM HEPES (Thermo Fisher Scientific), 0.1% BSA (Sigma-Aldrich), 2.5 μg/mL Fluo-4 AM (Dojin Kagaku), 0.08% Pluronic F127 (Dojin Kagaku), 1.25 mM probenecid (Dojin Kagaku)) was added at 30 μL/well. After incubation in a 5% CO2 incubator at 37° C. for 30 minutes, it was incubated at room temperature for another 30 minutes. Add 10 μL/well of the test compound diluted with assay buffer B (HBSS, 20 mM HEPES, 0.1% BSA), and use FDSS μCELL (Hamamatsu Photonics) to measure the fluorescence value every 1 second for 1 minute, and then every 2 seconds for 1 minute. It was measured for 1 minute and 40 seconds. The amount of fluorescence value when DMSO is added instead of the test compound is defined as 0%, and the amount of fluorescence value when orexin A (human) (Peptide Institute) with a final concentration of 10 nM is added is defined as 100%. The activity (%) of the test compound was calculated.
row,Structure (SMILES),"OX2R agonist activity (3 uM, %) [%]"
1,"CCS(=O)(=O)N[C@@H]1CN2C(=O)N(c3noc4cc(F)cc(-c5ncc(F)cc5F)c34)CC[C@@H]2C1(F)F [Example 254, N-{(4aR,6R)-2-[4-(3,5-difluoropyridin-2-yl)-6-fluoro-1,2-benzoxazol-3-yl]-5,5-difluoro-1-oxooctahydropyrrolo[1,2-c]pyrimidin-6-yl}ethanesulfonamide]",95
2,"CCS(=O)(=O)N[C@@H]1CN2C(=O)N(c3noc4cccc(-c5c(F)cc(F)cc5F)c34)CC[C@@H]2C1(F)F [Example 260, N-{(4aR,6R)-5,5-difluoro-1-oxo-2-[4-(2,4,6-trifluorophenyl)-1,2-benzoxazol-3-yl]octahydropyrrolo[1,2-c]pyrimidin-6-yl}ethanesulfonamide]",108
3,"O=C1N(c2noc3cc(OC(F)F)cc(-c4c(F)cc(F)cc4F)c23)CC[C@H]2N1C[C@@H](NS(=O)(=O)C1CC1)C2(F)F [Example 316, N-{(4aR,6R)-2-[6-(difluoromethoxy)-4-(2,4,6-trifluorophenyl)-1,2-benzoxazol-3-yl]-5,5-difluoro-1-oxooctahydropyrrolo[1,2-c]pyrimidin-6-yl}cyclopropanesulfonamide]",105
4,"CCS(=O)(=O)N[C@@H]1CN2C(=O)N(c3noc4ccc(F)c(-c5c(F)cc(F)cc5F)c34)CC[C@@H]2C1(F)F [Example 204, N-{(4aR,6R)-5,5-difluoro-2-[5-fluoro-4-(2,4,6-trifluorophenyl)-1,2-benzoxazol-3-yl]-1-oxooctahydropyrrolo[1,2-c]pyrimidin-6-yl}ethanesulfonamide]",109
5,"CS(=O)(=O)N[C@@H]1CN2C(=O)N(c3noc4cccc(-c5c(F)cccc5F)c34)C[C@H]2CC1(F)F (relative stereo) [Example 216, rel-N-{(6R,8aR)-2-[4-(2,6-difluorophenyl)-1,2-benzoxazol-3-yl]-7,7-difluoro-3-oxooctahydroimidazo[1,5-a]pyridin-6-yl}methanesulfonamide]",101
6,"Cn1nc(-n2cc3n(c2=O)C[C@@H](NS(C)(=O)=O)C3)c2c(-c3c(F)cccc3F)cccc21 [Example 103, N-{(6S)-2-[4-(2,6-difluorophenyl)-1-methyl-1H-indazol-3-yl]-3-oxo-2,5,6,7-tetrahydro-3H-pyrrolo[1,2-c]imidazol-6-yl}methanesulfonamide]",106
7,"Cc1cc(-c2c(F)cc(F)cc2F)c2c(N3CC[C@H]4N(C[C@@H](NS(C)(=O)=O)C4(F)F)C3=O)noc2n1 [Example 258, N-{(4aR,6R)-5,5-difluoro-2-[6-methyl-4-(2,4,6-trifluorophenyl)[1,2]oxazolo[5,4-b]pyridin-3-yl]-1-oxooctahydropyrrolo[1,2-c]pyrimidin-6-yl}methanesulfonamide]",100
8,"CCS(=O)(=O)N[C@H]1Cc2c(C)n(-c3noc4cccc(-c5c(F)cccc5F)c34)c(=O)n2C1 [Example 12, N-{(6S)-2-[4-(2,6-difluorophenyl)-1,2-benzoxazol-3-yl]-1-methyl-3-oxo-2,5,6,7-tetrahydro-3H-pyrrolo[1,2-c]imidazol-6-yl}ethanesulfonamide]",105
9,"CCS(=O)(=O)N[C@@H]1CN2C(=O)N(c3noc4cc(OC(F)F)cc(-c5c(F)cccc5F)c34)CC[C@@H]2C1(F)F [Example 255, N-{(4aR,6R)-2-[6-(difluoromethoxy)-4-(2,6-difluorophenyl)-1,2-benzoxazol-3-yl]-5,5-difluoro-1-oxooctahydropyrrolo[1,2-c]pyrimidin-6-yl}ethanesulfonamide]",107
10,"CCS(=O)(=O)N[C@H]1C[C@H]2CN(c3cnc4cccc(-c5c(F)cccc5F)n34)C(=O)N2C1 [Example 182, N-{(6S,7aS)-2-[5-(2,6-difluorophenyl)imidazo[1,2-a]pyridin-3-yl]-3-oxohexahydro-1H-pyrrolo[1,2-c]imidazol-6-yl}ethanesulfonamide]",84
11,"CCS(=O)(=O)N[C@@H]1Cn2c(cn(-c3noc4cccc(-c5c(F)cccc5F)c34)c2=O)C1(C)C [Example 70, N-{(6S)-2-[4-(2,6-difluorophenyl)-1,2-benzoxazol-3-yl]-7,7-dimethyl-3-oxo-2,5,6,7-tetrahydro-3H-pyrrolo[1,2-c]imidazol-6-yl}ethanesulfonamide]",105

# The remaining lines, values ahead:
row,"OX2R agonist activity (3 uM, %) [%]",Structure (SMILES)
1,101,"O=c1n(-c2noc3cc(C(F)F)cc(-c4c(F)cccc4F)c23)cc2n1C[C@@H](NS(=O)(=O)CF)C2(F)F [Example 306, N-{(6R)-2-[6-(difluoromethyl)-4-(2,6-difluorophenyl)-1,2-benzoxazol-3-yl]-7,7-difluoro-3-oxo-2,5,6,7-tetrahydro-3H-pyrrolo[1,2-c]imidazol-6-yl}-1-fluoromethanesulfonamide]"
2,91,"Cc1cc(-c2c(F)cccc2F)c2c(-n3cc4n(c3=O)C[C@@H](NS(C)(=O)=O)C4(F)F)noc2n1 [Example 118, N-{(6R)-2-[4-(2,6-difluorophenyl)-6-methyl[1,2]oxazolo[5,4-b]pyridin-3-yl]-7,7-difluoro-3-oxo-2,5,6,7-tetrahydro-3H-pyrrolo[1,2-c]imidazol-6-yl}methanesulfonamide]"
3,89,"COCc1cc2onc(-n3cc4n(c3=O)C[C@@H](NS(C)(=O)=O)C4(F)F)c2c(-c2c(F)cc(F)cc2F)c1F [Example 244, N-{(6R)-7,7-difluoro-2-[5-fluoro-6-(methoxymethyl)-4-(2,4,6-trifluorophenyl)-1,2-benzoxazol-3-yl]-3-oxo-2,5,6,7-tetrahydro-3H-pyrrolo[1,2-c]imidazol-6-yl}methanesulfonamide]"
4,101,"CNS(=O)(=O)N[C@@H]1Cn2c(cn(-c3noc4cc(F)cc(-c5c(F)cc(F)cc5F)c34)c2=O)C1(F)F [Example 139, N-{(6R)-7,7-difluoro-2-[6-fluoro-4-(2,4,6-trifluorophenyl)-1,2-benzoxazol-3-yl]-3-oxo-2,5,6,7-tetrahydro-3H-pyrrolo[1,2-c]imidazol-6-yl}-N′-methylsulfuric diamide]"
5,98,"CCS(=O)(=O)N[C@@H]1CN2C(=O)N(c3noc4cc(F)c(F)c(-c5c(F)cc(F)cc5F)c34)C[C@@H]2C1(F)F [Example 172, N-{(6R,7aR)-2-[5,6-difluoro-4-(2,4,6-trifluorophenyl)-1,2-benzoxazol-3-yl]-7,7-difluoro-3-oxohexahydro-1H-pyrrolo[1,2-c]imidazol-6-yl}ethanesulfonamide]"
6,106,"CCS(=O)(=O)N[C@@H]1Cn2c(cn(-c3noc4cc(Cl)cc(-c5c(F)cc(F)cc5F)c34)c2=O)C1(F)F [Example 39, N-{(6R)-2-[6-chloro-4-(2,4,6-trifluorophenyl)-1,2-benzoxazol-3-yl]-7,7-difluoro-3-oxo-2,5,6,7-tetrahydro-3H-pyrrolo[1,2-c]imidazol-6-yl}ethanesulfonamide]"
7,108,"O=C1N(c2noc3cc(F)cc(-c4c(F)cc(F)cc4F)c23)CC[C@H]2N1C[C@@H](NS(=O)(=O)CF)C2(F)F [Example 236, N-{(4aR,6R)-5,5-difluoro-2-[6-fluoro-4-(2,4,6-trifluorophenyl)-1,2-benzoxazol-3-yl]-1-oxooctahydropyrrolo[1,2-c]pyrimidin-6-yl}-1-fluoromethanesulfonamide]"
8,109,"CCS(=O)(=O)N[C@@H]1Cn2c(cn(-c3noc4cc(OC(F)F)cc(-c5c(F)cc(F)cc5F)c34)c2=O)C1(F)F [Example 179, N-{(6R)-2-[6-(difluoromethoxy)-4-(2,4,6-trifluorophenyl)-1,2-benzoxazol-3-yl]-7,7-difluoro-3-oxo-2,5,6,7-tetrahydro-3H-pyrrolo[1,2-c]imidazol-6-yl}ethanesulfonamide]"
9,94,"CCS(=O)(=O)N[C@@H]1Cn2c(cn(-c3noc4cc(F)c(F)c(-c5c(F)cccc5F)c34)c2=O)C1(F)F [Example 170, N-{(6R)-2-[4-(2,6-difluorophenyl)-5,6-difluoro-1,2-benzoxazol-3-yl]-7,7-difluoro-3-oxo-2,5,6,7-tetrahydro-3H-pyrrolo[1,2-c]imidazol-6-yl}ethanesulfonamide]"
